Source: paper PMC6199744, “Development of Chemical Proteomics for the Folateome and Analysis of the Kinetoplastid Folateome” (ACS Infectious Diseases, 2018)
Like-named read-outs stand apart in the source and are kept apart here.

Tests used:
Type in all cases: binding
[1] = target: T1, HeLa cell extract proteins (Homo sapiens, UniProt O15027)
T1 construct: endogenous in cells; host or cells: HeLa cell extract

[2] = target: T2, HeLa cell extract proteins (Homo sapiens, UniProt P31947)
T2 construct: endogenous in cells; host or cells: HeLa cell extract
T2 sequence (P31947 1-248): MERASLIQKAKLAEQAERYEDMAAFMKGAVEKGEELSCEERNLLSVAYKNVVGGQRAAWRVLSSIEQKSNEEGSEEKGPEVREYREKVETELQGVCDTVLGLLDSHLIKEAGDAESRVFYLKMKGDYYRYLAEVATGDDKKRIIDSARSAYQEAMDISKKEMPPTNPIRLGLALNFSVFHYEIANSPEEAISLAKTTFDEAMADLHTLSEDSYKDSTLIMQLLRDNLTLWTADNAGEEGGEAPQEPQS

[3] = target: T3, HeLa cell extract proteins (Homo sapiens, UniProt P26641)
T3 construct: endogenous in cells; host or cells: HeLa cell extract

[4] = target: T4, HeLa cell extract proteins (Homo sapiens, UniProt P48651)
T4 construct: endogenous in cells; host or cells: HeLa cell extract

[5] = target: T5, HeLa cell extract proteins (Homo sapiens, UniProt P06733)
T5 construct: endogenous in cells; host or cells: HeLa cell extract

[6] = target: T6, HeLa cell extract proteins (Homo sapiens, UniProt Q9H0N5)
T6 construct: endogenous in cells; host or cells: HeLa cell extract

[7] = target: T7, HeLa cell extract proteins (Homo sapiens, UniProt Q9UBN7)
T7 construct: endogenous in cells; host or cells: HeLa cell extract
T7 sequence (Q9UBN7 1-1215): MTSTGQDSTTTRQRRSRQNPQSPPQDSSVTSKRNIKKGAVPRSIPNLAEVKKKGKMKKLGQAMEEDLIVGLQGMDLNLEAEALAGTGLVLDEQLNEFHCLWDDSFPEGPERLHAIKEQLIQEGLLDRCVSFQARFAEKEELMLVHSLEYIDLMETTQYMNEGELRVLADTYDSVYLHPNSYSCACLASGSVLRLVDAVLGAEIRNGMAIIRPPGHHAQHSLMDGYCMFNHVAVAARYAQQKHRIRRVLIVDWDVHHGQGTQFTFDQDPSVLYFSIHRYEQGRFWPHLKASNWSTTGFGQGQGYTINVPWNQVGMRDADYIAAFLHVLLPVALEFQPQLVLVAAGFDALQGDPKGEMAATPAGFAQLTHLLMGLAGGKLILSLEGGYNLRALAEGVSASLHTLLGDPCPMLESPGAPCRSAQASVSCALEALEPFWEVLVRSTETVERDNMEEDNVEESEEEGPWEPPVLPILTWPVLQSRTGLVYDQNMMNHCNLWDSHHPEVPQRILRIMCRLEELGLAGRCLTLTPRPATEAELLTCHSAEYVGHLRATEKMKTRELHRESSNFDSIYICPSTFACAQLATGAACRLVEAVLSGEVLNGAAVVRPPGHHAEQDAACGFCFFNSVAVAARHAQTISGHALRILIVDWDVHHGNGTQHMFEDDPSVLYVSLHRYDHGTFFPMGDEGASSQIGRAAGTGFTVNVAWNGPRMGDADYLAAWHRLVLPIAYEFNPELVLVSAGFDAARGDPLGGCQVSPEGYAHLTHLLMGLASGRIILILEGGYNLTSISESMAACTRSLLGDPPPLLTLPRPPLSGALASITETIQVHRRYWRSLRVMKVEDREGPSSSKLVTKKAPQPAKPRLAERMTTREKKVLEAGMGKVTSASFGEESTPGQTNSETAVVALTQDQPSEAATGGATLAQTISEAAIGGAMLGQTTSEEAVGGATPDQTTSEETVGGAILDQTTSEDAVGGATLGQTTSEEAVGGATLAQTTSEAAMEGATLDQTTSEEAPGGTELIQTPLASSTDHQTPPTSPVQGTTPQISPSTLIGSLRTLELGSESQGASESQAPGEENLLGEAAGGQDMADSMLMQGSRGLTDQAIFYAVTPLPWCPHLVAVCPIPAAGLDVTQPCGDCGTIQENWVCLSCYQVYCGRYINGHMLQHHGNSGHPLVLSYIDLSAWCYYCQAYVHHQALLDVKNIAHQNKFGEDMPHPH

[8] = target: T8, HeLa cell extract proteins (Homo sapiens, UniProt Q03519)
T8 construct: endogenous in cells; host or cells: HeLa cell extract
T8 sequence (Q03519 1-686): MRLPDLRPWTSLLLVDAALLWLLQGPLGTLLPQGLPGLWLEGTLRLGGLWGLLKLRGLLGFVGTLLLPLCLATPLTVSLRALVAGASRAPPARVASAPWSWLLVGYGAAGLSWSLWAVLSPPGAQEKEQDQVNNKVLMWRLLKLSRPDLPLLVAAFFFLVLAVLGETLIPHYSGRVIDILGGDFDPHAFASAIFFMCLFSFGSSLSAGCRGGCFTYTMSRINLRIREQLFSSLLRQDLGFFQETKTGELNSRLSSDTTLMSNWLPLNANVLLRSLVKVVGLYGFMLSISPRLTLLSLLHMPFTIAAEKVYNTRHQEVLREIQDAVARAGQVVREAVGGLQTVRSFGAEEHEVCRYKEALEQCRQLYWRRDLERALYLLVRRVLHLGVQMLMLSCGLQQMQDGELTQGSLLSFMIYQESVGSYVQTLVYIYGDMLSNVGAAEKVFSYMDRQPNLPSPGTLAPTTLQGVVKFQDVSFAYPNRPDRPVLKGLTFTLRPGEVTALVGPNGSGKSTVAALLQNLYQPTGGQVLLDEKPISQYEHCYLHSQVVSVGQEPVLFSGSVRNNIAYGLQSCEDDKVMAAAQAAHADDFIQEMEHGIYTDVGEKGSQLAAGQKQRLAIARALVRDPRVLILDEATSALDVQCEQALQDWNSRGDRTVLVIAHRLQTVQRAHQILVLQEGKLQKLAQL

[9] = HeLa, protein SEC16A (HY[…] LOC9919)
[10] = HeLa, protein ENO1 (ISOFORM ALPHA-ENOLASE OF ALPHA-ENOLASE.)

T1 sequence (O15027 whole entry): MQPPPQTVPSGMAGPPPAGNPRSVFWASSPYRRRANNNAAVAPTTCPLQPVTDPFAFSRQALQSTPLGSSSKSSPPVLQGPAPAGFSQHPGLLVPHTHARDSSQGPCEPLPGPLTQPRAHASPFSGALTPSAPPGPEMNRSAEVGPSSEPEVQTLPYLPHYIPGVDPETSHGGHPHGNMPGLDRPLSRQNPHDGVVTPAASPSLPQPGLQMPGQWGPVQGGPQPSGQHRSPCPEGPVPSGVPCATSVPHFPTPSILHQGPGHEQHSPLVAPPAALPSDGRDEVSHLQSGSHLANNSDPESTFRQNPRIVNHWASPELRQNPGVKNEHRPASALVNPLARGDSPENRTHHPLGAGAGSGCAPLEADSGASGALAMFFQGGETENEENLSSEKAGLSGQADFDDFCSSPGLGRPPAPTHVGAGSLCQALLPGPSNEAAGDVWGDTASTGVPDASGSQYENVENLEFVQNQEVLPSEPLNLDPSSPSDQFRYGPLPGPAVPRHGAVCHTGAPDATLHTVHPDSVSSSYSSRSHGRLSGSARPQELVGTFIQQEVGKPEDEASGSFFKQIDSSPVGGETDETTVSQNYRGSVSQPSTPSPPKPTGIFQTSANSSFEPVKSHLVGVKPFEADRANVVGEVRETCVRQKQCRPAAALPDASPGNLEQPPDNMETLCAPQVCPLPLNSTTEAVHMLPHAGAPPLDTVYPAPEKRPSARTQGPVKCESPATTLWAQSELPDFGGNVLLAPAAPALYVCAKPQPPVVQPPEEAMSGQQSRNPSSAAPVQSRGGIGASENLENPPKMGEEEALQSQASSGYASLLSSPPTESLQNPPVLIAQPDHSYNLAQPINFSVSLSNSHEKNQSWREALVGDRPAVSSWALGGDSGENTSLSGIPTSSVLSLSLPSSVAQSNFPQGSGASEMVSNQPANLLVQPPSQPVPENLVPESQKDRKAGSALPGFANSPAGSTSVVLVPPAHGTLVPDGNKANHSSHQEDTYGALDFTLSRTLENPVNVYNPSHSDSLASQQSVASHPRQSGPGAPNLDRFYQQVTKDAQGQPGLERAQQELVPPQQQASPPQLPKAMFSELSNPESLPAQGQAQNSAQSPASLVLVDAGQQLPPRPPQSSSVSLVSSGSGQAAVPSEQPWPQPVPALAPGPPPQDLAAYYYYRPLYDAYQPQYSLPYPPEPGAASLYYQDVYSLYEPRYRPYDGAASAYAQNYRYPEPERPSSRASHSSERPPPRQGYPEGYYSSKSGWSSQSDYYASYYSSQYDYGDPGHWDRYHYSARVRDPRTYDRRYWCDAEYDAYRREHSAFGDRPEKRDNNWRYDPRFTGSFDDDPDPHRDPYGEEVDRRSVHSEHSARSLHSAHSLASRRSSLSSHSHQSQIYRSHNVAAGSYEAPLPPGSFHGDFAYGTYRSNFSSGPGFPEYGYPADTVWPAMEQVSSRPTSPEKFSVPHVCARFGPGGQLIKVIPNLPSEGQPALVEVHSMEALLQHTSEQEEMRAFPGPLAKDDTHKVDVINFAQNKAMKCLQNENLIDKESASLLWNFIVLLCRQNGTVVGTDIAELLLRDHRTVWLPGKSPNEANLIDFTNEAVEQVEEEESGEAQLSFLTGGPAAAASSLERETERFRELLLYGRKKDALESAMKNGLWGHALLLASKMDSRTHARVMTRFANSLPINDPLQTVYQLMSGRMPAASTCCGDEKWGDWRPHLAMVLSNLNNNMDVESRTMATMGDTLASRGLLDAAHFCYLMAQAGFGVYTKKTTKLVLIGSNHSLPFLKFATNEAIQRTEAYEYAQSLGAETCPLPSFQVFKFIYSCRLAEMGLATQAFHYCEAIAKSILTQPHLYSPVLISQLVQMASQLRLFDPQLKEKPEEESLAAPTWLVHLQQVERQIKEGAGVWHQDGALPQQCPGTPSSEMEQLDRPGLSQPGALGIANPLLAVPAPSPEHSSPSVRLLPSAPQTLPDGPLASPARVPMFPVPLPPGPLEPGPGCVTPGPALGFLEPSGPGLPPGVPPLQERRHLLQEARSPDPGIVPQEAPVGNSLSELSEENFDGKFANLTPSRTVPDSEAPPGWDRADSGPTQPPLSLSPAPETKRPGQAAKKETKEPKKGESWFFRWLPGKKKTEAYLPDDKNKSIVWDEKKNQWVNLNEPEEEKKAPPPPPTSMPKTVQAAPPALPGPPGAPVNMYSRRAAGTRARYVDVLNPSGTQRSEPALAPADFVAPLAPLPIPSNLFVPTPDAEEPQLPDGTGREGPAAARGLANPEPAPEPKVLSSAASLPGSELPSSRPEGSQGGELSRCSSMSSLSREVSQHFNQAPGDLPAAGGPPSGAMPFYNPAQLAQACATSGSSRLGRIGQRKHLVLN
T5 sequence (P06733 whole entry): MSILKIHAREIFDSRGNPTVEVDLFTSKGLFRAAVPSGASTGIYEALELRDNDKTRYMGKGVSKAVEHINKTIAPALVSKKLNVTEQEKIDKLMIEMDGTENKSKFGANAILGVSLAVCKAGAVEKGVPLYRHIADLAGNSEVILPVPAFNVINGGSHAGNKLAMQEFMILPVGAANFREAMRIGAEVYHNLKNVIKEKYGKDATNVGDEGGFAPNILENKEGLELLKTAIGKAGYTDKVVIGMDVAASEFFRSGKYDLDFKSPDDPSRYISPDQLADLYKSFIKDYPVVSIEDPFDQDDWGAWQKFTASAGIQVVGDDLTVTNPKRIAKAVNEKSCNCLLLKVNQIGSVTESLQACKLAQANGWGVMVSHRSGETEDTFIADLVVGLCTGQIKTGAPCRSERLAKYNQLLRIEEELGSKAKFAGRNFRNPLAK
T6 sequence (Q9H0N5 whole entry): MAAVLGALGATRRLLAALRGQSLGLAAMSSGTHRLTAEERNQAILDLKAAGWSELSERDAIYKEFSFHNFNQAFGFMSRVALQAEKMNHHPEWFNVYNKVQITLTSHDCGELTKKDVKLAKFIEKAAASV
T3 sequence (P26641 whole entry): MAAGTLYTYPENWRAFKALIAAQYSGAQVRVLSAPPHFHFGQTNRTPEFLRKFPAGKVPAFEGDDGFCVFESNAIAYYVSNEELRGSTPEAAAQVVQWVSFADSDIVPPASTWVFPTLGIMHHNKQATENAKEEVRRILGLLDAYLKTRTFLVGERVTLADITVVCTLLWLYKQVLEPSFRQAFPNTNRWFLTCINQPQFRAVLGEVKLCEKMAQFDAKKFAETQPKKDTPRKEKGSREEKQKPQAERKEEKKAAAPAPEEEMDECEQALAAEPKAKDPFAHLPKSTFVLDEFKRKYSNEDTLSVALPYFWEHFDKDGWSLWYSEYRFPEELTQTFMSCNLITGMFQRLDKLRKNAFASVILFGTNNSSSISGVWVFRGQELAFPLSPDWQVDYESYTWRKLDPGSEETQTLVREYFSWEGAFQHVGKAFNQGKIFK

Structure (SMILES)	fold changes relative to vehicle control ([2]; HeLa, protein SFN)	fold changes relative to vehicle control ([3]; HeLa, protein EEF1G)	fold changes relative to vehicle control ([4]; HeLa, protein PTDSS1)	fold changes relative to vehicle control ([5]; HeLa, protein ENO1)	fold changes relative to vehicle control ([6]; HeLa, captured protein PCBD2)	fold changes relative to vehicle control ([7]; HeLa, captured protein HDAC6)	fold changes relative to vehicle control ([8]; HeLa, captured protein TAP2)	fold changes relative to vehicle control ([1]; HeLa, protein SEC16A)	fold changes relative to vehicle control ([2]; protein SFN, HeLa)	fold changes relative to vehicle control ([3]; protein EEF1G, HeLa)	fold changes relative to vehicle control ([4]; captured protein PTDSS1, HeLa)	fold changes relative to vehicle control [5, 10] [fold]	fold changes relative to vehicle control ([6]; captured protein PCBD2, HeLa)	fold changes relative to vehicle control ([7]; captured protein HDAC6, HeLa)	fold changes relative to vehicle control ([8]; captured protein TAP2, HeLa)	further results
Nc1nc2c(c(=O)[nH]1)N(C=O)C(CNc1ccc(C(=O)N[C@@H](CCC(=O)O)C(=O)O)cc1)CN2 (some centres unmarked) [LEU, leucovorin]	1.07	1	0.84	1.07	1.14	1.02	1.11	–	–	–	–	–	–	–	–	fold changes relative to vehicle control [1, 9]: 1.25
Nc1nc2[nH]cc(CCc3ccc(C(=O)N[C@@H](CCC(=O)O)C(=O)O)cc3)c2c(=O)[nH]1 [PTX, pemetrexed]	–	–	–	–	–	–	–	–	–	–	–	–	–	–	–	fold changes relative to vehicle control [1]: 1.17; fold changes relative to vehicle control [2]: 1.28; fold changes relative to vehicle control [3]: 1.05; fold changes relative to vehicle control [4]: 0.8; fold changes relative to vehicle control [5]: 1.14; fold changes relative to vehicle control [6]: 0.99; fold changes relative to vehicle control [7]: 0.98; fold changes relative to vehicle control [8]: 0.89
CCCCCCOc1ccc(Cc2cnc(N)nc2N)cc1 [compound 1]	–	–	–	–	–	–	–	1	1.27	1.31	0.68	1.47	0.88	0.95	1.01	–
CCCCCCOc1cccc(Cc2cnc(N)nc2N)c1 [compound 2]	–	–	–	–	–	–	–	0.97	1.83	1.67	1.03	2.6	0.77	1.1	0.98	–
Nc1nc2cccc(-c3ccccc3)c2n1Cc1ccc(Cl)c(Cl)c1 [compound 3]	–	–	–	–	–	–	–	1.19	0.82	0.94	0.77	0.84	1	1.14	1.06	–
NCCOCCOCC(=O)Nc1nc2ncc(CNc3ccc(C(=O)NC(CCC(=O)O)C(=O)O)cc3)nc2c(=O)[nH]1 (centres unmarked) [compound 6]	1.45	1.15	0.89	1.26	1.02	1.06	1.18	–	–	–	–	–	–	–	–	fold changes relative to vehicle control [1, 9]: 1.13
NCCCNc1ccc(C(=O)NC(CCC(=O)O)C(=O)O)cc1 (centres unmarked) [compound 7]	0.97	0.94	0.96	0.9	1.14	1.02	1.09	–	–	–	–	–	–	–	–	fold changes relative to vehicle control ([1]; HeLa, protein SEC16A (HYPOTHETICAL PROTEIN LOC9919)): 1.3
